The values below come from doi:10.1101/2024.12.04.625365v1 (biorxiv, 2024).

For one assay, the target named is recombinant hAQP4 (AQP4) (Homo sapiens, UniProt P55087). Put plainly: biochemical.
The target in assay [1] is T1, A2AR (human A2A receptor) (Homo sapiens, UniProt P29274). Put plainly: intrinsic tryptophan fluorescence quenching. The assay is classed as binding.
The target of assay [2] is T1, A2AR (human A2A receptor). The experiment in a line: displacement of [3H]ZM-241385 from crude Pichia membranes. The format is binding. A general note: Displacement assays read how much labelled ligand stays bound in the presence of the test substance.

T1 sequence (P29274 whole entry): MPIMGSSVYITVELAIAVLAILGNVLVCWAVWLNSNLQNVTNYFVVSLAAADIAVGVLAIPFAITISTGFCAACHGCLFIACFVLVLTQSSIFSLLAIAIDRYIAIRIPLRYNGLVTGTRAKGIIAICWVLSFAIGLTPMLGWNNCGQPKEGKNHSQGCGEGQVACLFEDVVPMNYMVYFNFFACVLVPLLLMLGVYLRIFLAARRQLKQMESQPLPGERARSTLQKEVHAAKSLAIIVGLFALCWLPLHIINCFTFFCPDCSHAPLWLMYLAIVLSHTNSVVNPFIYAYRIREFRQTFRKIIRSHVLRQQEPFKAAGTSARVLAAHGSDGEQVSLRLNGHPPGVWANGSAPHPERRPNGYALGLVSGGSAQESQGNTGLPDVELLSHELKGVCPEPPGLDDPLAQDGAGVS
Chain of recombinant hAQP4 (AQP4) (P55087 whole entry): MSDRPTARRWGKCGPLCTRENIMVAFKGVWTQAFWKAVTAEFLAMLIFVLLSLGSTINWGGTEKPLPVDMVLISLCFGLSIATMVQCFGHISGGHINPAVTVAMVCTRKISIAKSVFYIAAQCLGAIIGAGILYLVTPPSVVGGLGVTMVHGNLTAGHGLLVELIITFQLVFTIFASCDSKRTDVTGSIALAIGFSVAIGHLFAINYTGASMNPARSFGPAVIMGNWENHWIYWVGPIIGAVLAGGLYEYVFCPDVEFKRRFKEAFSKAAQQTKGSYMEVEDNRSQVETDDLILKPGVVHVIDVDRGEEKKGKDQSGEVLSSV

Usually Kd stands for the equilibrium constant for the complex coming apart. For the molecule `O=C(Nc1cc(C(F)(F)F)cc(C(F)(F)F)c1)c1cc(Cl)ccc1O` [AER-270, N-(3,5-bis(trifluoromethyl)phenyl)-5-chloro-2-hydroxybenzamide], at recombinant hAQP4 (AQP4), the Kd turned out to be 17 ± 3.1 µM.
What is called IC50 is the concentration that gives 50% inhibition. As for `O=C(Nc1nncs1)c1cccnc1` [TGN-020, N-1,3,4-thiadiazol-2-yl-3-pyridinecarboxamide], in assay [1], binding was put at a Kd of 54 µM. The IC50 in assay [2] came to 20 µM.
